Source: patent publication US12129235B2, “TSPO binders” (The University Court of the University of Glasgow, priority 2018, dated 2024)

Columns and labels:
Design in all cases: from tissue; host or cells: living Sprague-Dawley rats (brain, heart, lungs and other organs)
[1] = target: T1, TSPO (Rattus norvegicus, UniProt P16257); experiment: ^18F-LW223 PET kinetic modelling and test-retest in rats; assay type: in vivo; conditions: for VT: baseline, Logan modelling; for VT / Distribution volume ratio (DVR) relative to blood pool: mean±SEM, n=3
Procedure: All experiments were conducted in accordance with the local University of Edinburgh animal ethics committee and were authorized by the Home Office under the Animals (Scientific Procedures) Act 1986. 28 adult male Sprague-Dawley rats (357.1±8.1 g and 10.2±0.4 weeks), and 2 C57bl/6 (25.3±3.7 g and 10.1±0.0 weeks) were used for this study, with 2 C57bl/6 (26.0±5.3 g and 13.5±5.7 weeks) used in an additional study. The animals were housed under standard 12 h light:12 h dark conditions with food and water available ad libitum. On the day of the experiment, anesthesia was induced and maintained with 1.5-2.5% isoflurane (50/50 oxygen/nitrous oxide, 1 L/min). For imaging experiments, an intravenous (i.v.) line was established in the femoral vein or tail vein for injection of the radiotracer and the femoral artery was cannulated to allow automated blood sample collection, as previously described (Warnock et al.).
(§1) 13 PET scans were performed with ^18F-LW223 (mean injected radioactivity of 19.55±2.1 MBq). Scans were acquired following i.v. bolus injection of ^18F-LW223 via tail vein or femoral vein shunt (invasive kinetic modelling experiments with β-probe automatic blood sampler) in rats. Test-retest scans were obtained in three rats following i.v. bolus of the radiotracer, with two weeks interval between test and retest imaging sessions. […] These scans were compared to baseline scans where no PK11195 was used. For displacement studies, rats received i.v. administration of ^18F-LW223 and scanned continuously for 120 min. […] A male and female mouse were initially used to derive the dosimetry estimates for ^18F-LW223 over a 4 h dynamic scan, followed by additional mice in a further study (in a study with a mean injected radioactivity of 10.83±5.6 MBq).
A commercially available β-probe system (Twilite2, Swisstrace, Switzerland) was used for the measurement of blood radioactivity as previously described (Warnock et al.). […] With data acquired in separate studies (radiometabolite experiments), the whole-blood arterial input function measured by the automatic blood sampler was corrected for the plasma-to-whole blood ratio and for metabolism in vivo.
(§2) All PET data were acquired using a preclinical PET/CT small animal scanner (nanoPET/CT, Mediso, Hungary). A CT scan (semi-circular full trajectory, maximum field of view, 480 projections, 50 kVp, 300 ms and 1:4 binning) was acquired for attenuation correction. Immediately following radiotracer administration, a 120 minutes emission scan was obtained using 3-dimentional 1:5 mode and re-binned as follows: 18×10 s; 2×30 s; 1×60 s; 2×2 min; 10×5 min; 6×10 min. PET images were reconstructed using Mediso's iterative Tera-Tomo 3D reconstruction algorithm and the following settings: 4 iterations, 6 subsets, full detector model, low regularization, spike filter on, voxel size 0.4 mm and 400-600 keV energy window. PET data were corrected for randoms, scatter and attenuation.
Image Processing and Data Analysis Reconstructed scans were imported into PMOD 3.8 software (PMOD Technologies, Switzerland). Volumes of interest (VOIs) were manually drawn around organs of interest. Time-activity curves (TACs) were generated and standardized uptake values (SUVs) calculated as concentration in the VOI divided by injected dose divided by animal weight. Kinetic modelling was performed using compartmental analysis (1-Tissue (1T) and 2-Tissue (2T) models) and graphical analysis (Logan plot and Ichise multivariate analysis) to estimate the volume of distribution (VT) in different tissues (Innis et al.; Logan; and Ichise et al.). Model fitting performance was evaluated using the Akaike information criterion (AIC) and the model selection criterion (MSC), where the preferred model had the lowest AIC and highest MSC. The selected identifiability criterion was the percentage standard error (% SE) of VT estimates. […]

[2] = target: T1, TSPO; experiment: ^18F-LW223 PET/CT in rat model of myocardial infarction; assay type: in vivo, rats; conditions: heart, brain and lungs; 7 days after myocardial infarction
Text: Rats underwent permanent of ligation of the left anterior descending coronary artery to induce myocardial infarction and after 7 days were imaged using ^18F-LW223 PET/CT (see FIG. 11). Naive rats were used as a healthy control for comparison. […] This indicates a myocardial infarction mediated increase in expression of TSPO within these organs which may also be interpreted as increased systemic inflammation.

[3] = target: T1, TSPO; experiment: ^18F-LW223 PET blocking and displacement with PK11195 (1 mg/kg) in rats; assay type: in vivo; conditions: for reduction of radiotracer binding post-blocking / VT post-blocking: PK11195 1 mg/kg; for displacement from target sites at equilibrium time point: PK11195 1 mg/kg after 60 min; for VT post-blocking: mean±SEM, n=3
Procedure: as §1, §2
Image Processing and Data Analysis Reconstructed scans were imported into PMOD 3.8 software (PMOD Technologies, Switzerland). Volumes of interest (VOIs) were manually drawn around organs of interest. Time-activity curves (TACs) were generated and standardized uptake values (SUVs) calculated as concentration in the VOI divided by injected dose divided by animal weight. Kinetic modelling was performed using compartmental analysis (1-Tissue (1T) and 2-Tissue (2T) models) and graphical analysis (Logan plot and Ichise multivariate analysis) to estimate the volume of distribution (VT) in different tissues (Innis et al.; Logan; and Ichise et al.). Model fitting performance was evaluated using the Akaike information criterion (AIC) and the model selection criterion (MSC), where the preferred model had the lowest AIC and highest MSC. The selected identifiability criterion was the percentage standard error (% SE) of VT estimates. Kinetic modeling was also performed using graphical analysis to estimate the distribution volume ratio (DVR) in tissue regions and organs where the reference region VOI was the blood pool VOI in the left ventricle (Logan et al.).

test-retest inter-subject variability of DVR ([1]; brain): 16%
VT ([1]; brain): 1.46
Distribution volume ratio (DVR) relative to blood pool ([1]; brain): 0.53±0.06
test-retest inter-subject variability of DVR ([1]; heart): 2%
VT ([1]; heart): 9.48±0.03
Distribution volume ratio (DVR) relative to blood pool ([1]; heart): 2.96±0.14
test-retest inter-subject variability of DVR ([1]; lungs): 15%
VT ([1]; lungs): 5.13±0.29
Distribution volume ratio (DVR) relative to blood pool ([1]; lungs): 1.84±0.13
SUV relative to the blood pool versus naive rats [2]: increase
reduction on the SUV values post-blocking compared with baseline ([3]; PK11195 1 mg/kg prior to tracer): 64-81%
reduction of radiotracer binding post-blocking ([3]; brain): 12%
displacement from target sites at equilibrium time point ([3]; brain): 29%
reduction of radiotracer binding post-blocking ([3]; heart): 35%
displacement from target sites at equilibrium time point ([3]; heart): 52%
VT post-blocking ([3]; heart): 6.19±0.38
reduction of radiotracer binding post-blocking ([3]; lungs): 56%
displacement from target sites at equilibrium time point ([3]; lungs): 40%
VT post-blocking ([3]; lungs): 2.27±0.07
SMILES: CC[C@@H](C)N(C)C(=O)c1nc2ccccc2c(-c2ccccc2)c1C[18F] [^18F-LW223, (R)-(N-sec-Butyl)-3-[19-fluoro]-methyl-N-methyl-4-phenylquinoline-2-carboxamide]
